Results taken from publication PMC9331150 (ACS Medicinal Chemistry Letters, 2022).

Key:
[1] = system: SARS-CoV-2; conditions: read-out: EC50 against SARS-CoV-2; human bronchial epithelial cells; cited from earlier work
[2] = biological target: HCoV 229E 3CL^pro (Human coronavirus 229E, UniProt P0C6U2); test: biochemical; type: biochemical
[3] = system: rhinovirus infection; conditions: cited from earlier work
[4] = system: HCoV 229E; type: cell-based
[5] = biological target: SARS-CoV-2 3CL^pro (Severe acute respiratory syndrome coronavirus 2, UniProt P0DTD1); type: biochemical

Sequence of HCoV 229E 3CL^pro (P0C6U2 2966-3267): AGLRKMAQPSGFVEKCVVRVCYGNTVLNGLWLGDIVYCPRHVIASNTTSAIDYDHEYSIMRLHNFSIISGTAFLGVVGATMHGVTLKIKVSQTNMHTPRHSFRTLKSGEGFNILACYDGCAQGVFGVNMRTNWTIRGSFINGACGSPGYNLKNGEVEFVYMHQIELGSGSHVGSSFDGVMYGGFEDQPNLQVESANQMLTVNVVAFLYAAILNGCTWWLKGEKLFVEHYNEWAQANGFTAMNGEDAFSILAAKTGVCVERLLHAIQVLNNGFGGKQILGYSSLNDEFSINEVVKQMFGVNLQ

SMILES | IC50 [2] [µM] | fold less potent than nirmatrelvir (EC50, cell-based HCoV 229E) [4] | further results
CC(C)(C)[C@H](NC(=O)C(F)(F)F)C(=O)N1C[C@H]2[C@@H]([C@H]1C(=O)N[C@H](C#N)C[C@@H]1CCNC1=O)C2(C)C [Nirmatrelvir] | – | – | EC50 [1]: 0.075 µM
CC(C)(C)[C@H](NC(=O)C(F)(F)F)C(=O)N1C[C@H]2[C@@H]([C@H]1C(=O)N[C@@H](C[C@@H]1CCNC1=O)C(N)=O)C2(C)C [Compound 4] | > 100 | – | –
CC(C)(C)[C@H](NC(=O)C(F)(F)F)C(=O)N1C[C@H]2[C@@H]([C@H]1C(=O)N[C@H](CO)C[C@@H]1CCNC1=O)C2(C)C [Compound 3] | > 100 | – | –
CC(C)(C)[C@H](NC(=O)C(F)(F)F)C(=O)N1C[C@H]2[C@@H]([C@H]1C(=O)NCCC1CCNC1=O)C2(C)C (stereo partly drawn) [Compound 1] | > 100 | – | –
CCOC(=O)/C=C/[C@H](C[C@@H]1CCNC1=O)NC(=O)[C@@H](CC(=O)[C@@H](NC(=O)c1cc(C)on1)C(C)C)Cc1ccc(F)cc1 [rupintrivir] | – | – | efficacy against rhinovirus infection in phase 2 clinical trials [3]: lack of efficacy
CC(C)(C)[C@H](NC(=O)C(F)(F)F)C(=O)N1C[C@H]2[C@@H]([C@H]1C(=O)N[C@@H](C[C@@H]1CCNC1=O)C(=O)COCc1ccccc1)C2(C)C [Compound 9] | – | approximately 2 fold | fold less potent than nirmatrelvir against HCoV 229E 3CL^pro (IC50) [2]: 3 fold
CC(C)(C)[C@H](NC(=O)C(F)(F)F)C(=O)N1C[C@H]2[C@@H]([C@H]1C(=O)N[C@H](C=O)C[C@@H]1CCNC1=O)C2(C)C [Compound 2] | – | ~4 fold | fold inhibitory activity improvement for HCoV 229E 3CL^pro compared to nirmatrelvir ([2]; IC50 ratio vs nirmatrelvir): 9 fold
COC(=O)[C@H](C[C@@H]1CCNC1=O)NC(=O)[C@@H]1[C@@H]2[C@H](CN1C(=O)[C@@H](NC(=O)C(F)(F)F)C(C)(C)C)C2(C)C [Compound 6] | > 100 | – | –
CC(C)(C)[C@H](NC(=O)C(F)(F)F)C(=O)N1C[C@H]2[C@@H]([C@H]1C(=O)N[C@@H](C[C@@H]1CCNC1=O)C(=O)C(=O)NC1CC1)C2(C)C [Compound 8] | – | 11 fold | fold improvement / more potent than nirmatrelvir (IC50, SARS-CoV-2 and HCoV 229E 3CL^pro) [5]: approximately 2 fold
